Measurements from US10894817B2, “Fatty acid modified urocortin-2 analogs for the treatment of diabetes and chronic kidney disease” (priority 2016, dated 2021).
Values joined by “and” are separate entries in the source; they are usually repeats but may differ in a detail not shown here. Identical values can stand only once. Like-named read-outs stand apart in the source and are kept apart here. Starred links: 1 amine or outer side, 2 acyl side, 3 side chain; linkers in the order of their positions; H or OH if unused. Non-standard residues stand in square brackets, D forms with d. Residues, ends and D or L forms follow the SMILES beside them. Groups on a side chain read outwards from the residue. *: point of attachment. C20 diacid = O=C(O)CCCCCCCCCCCCCCCCCCC(=O)*; γGlu = O=C(O)[C@H](CCC(=O)[*:2])N[*:1]; NMeI = CC[C@H](C)[C@H](NC)C(=O)O; AEEA = NCCOCCOCC(=O)O

Key:
remnant kidney mice = test: Mouse remnant kidney model of hypertensive nephropathy (Example 2, 9 weeks); type: in vivo; details: all groups
Description: A mouse remnant kidney model (“remnant”) involving surgical reduction of ¾ of the entire renal mass is used as a preclinical model of hypertensive renal disease (Kidney Int. 64(1):350-5, (2003)).
Surgical reduction of renal mass (N=40 mice) or sham surgery is performed by Taconic, Inc. in male 129S6 mice at 8-9 weeks of age (obtained by Taconic, Inc.). Randomization into 5 equivalent groups of 8 remnant kidney mice is done at 15 weeks post-surgery by urine albumin to creatinine ratio (ACR) and body weight.
Study duration is 9 weeks. After 2 weeks of dosing, a necropsy is done on all groups except the 144 nmol/kg group of Example 2 which continues to be monitored for ACR for another 7 weeks to determine the durability of the effects of the compound of Example 2 on urine ACR. […]
Body weight is determined at baseline and at termination with a Metler Toledo Balance. […] Serum is analyzed for BUN and creatinine on a Roche Hitachi Modular Analytics P analyzer with reagents from Roche. […]
Urine albumin and creatinine are determined on a Roche Hitachi Modular Analytics P analyzer. Urine creatinine is determined with the Creatinine Plus reagent by Roche. […]
All data are analyzed with JMP v.8.0 software (SAS Institute). […] All other data were evaluated by ANOVA with log transformed data if the data were skewed and a Students unpaired t test. […]

[1] = cynomolgus monkey, in vivo, iv, 96.4 nmol/kg, T1/2
Description: (§1) Plasma concentrations of compounds were determined by LC/MS methods. Each method measured the intact compound; peptide plus linked time extension. […] Two distinct layers were formed upon centrifugation with the compound and the IS located in the supernatant layer. An aliquot of the supernatant (80 μl) was transferred to a Thermo Protein Precipitation Plate with water (150 μl) and formic acid (25 μl) followed by mixing. A final 31% acetonitrile in 10% formic acid sample (10 μl) was loaded onto a Supelco Analytical Discovery BIO Wide Pore C5-3 column (5 cm×1 mm, 3 μm). The column effluent was directed into a Thermo Q-Exactive mass spectrometer for detection and quantitation.
(§2) Male Cynomolgus monkeys were administered a single subcutaneous dose or intravenous dose (96.4 nmol/kg) of a compound described herein in 20 mM Tris-HCl Buffer (pH 7) at a volume of 1 mL/kg. Blood was collected from each animal at 2, 6, 24, 48, 72, 96, 168, 240, 336, 408, and 504 hours postdose for pharmacokinetic characterization.

[2] = Pharmacokinetics, single intravenous dose, monkeys; details: for clearance: in vivo, CL
Description: as §1, §2

[3] = tested on: UniNx db/db AAV renin mice; test: Uninephrectomized db/db AAV renin model of diabetic nephropathy; type: in vivo
Description: The uninephrectomized db/db adeno-associated viral (AAV) renin model represents a progressive model of diabetic kidney disease with hypertension driven by an AAV renin transgene (Am J Physiol Regul Integr Comp Physiol. 309(5):R467-74, (2015)).
The uninephrectomy (UniNx) surgery on female db/db mice on a C57BLKS/J background (obtained from Harlan Laboratories) is performed by Harlan Laboratories at 4 weeks of age with removal of the right kidney to accelerate the diabetic kidney disease. Animals are received at 5 weeks of age and housed in micro-isolator cages at 3 mice per cage and are on a 12 hour light/dark cycle. All db/db mice are fed ad libitum with Purina special diet 5008 and allowed free access to autoclaved water.
Mice are acclimated for 7 weeks prior to administration of AAV Renin (5×10^9 GC) intravenously by the retro-orbital sinus to induce persistent hypertension. Randomization by urine albumin to creatinine ratio (ACR), blood glucose and body weight is done at 15 weeks of age (a point at which renal disease and pathology are established in this model based on observations) into 2 groups of 12 saline control mice and 33 mice to receive Lisinopril treatment.
Dosing with Lisinopril (30 mg/L) begins at 16 weeks of age. After 2 weeks of Lisinopril treatment, the 33 mice are randomized by urine ACR, blood glucose and body weight into 4 groups (one group of 9 mice and 3 groups of 8 mice).
In the 4 groups of UniNx db/db AAV renin mice receiving Lisinopril treatment, either 0.9% physiological saline for injection (“saline control” N=9) or different dose levels of Example 4 (7.2, 24 or 72 nmol/kg, N=8 per dose level) are dosed at 0.2 mL s.c. per injection beginning at 18 weeks of age and continued 3 times weekly for 12 weeks. Albumin and creatinine are measured in urine with a Roche Hitachi Modular Analytics P analyzer with Roche reagents for detection of albumin and creatinine.
For all the groups, the parameters measured are body weight, kidney weight, heart weight, urine albumin to creatinine ratio, serum creatinine and renal pathology scores for mesangial matrix expansion, glomerular fibrosis, tubular regeneration, interstitial inflammation and interstitial fibrosis.
At 15 and 27 weeks of age, blood (30 to 50 uL) from all the UniNx db/db AAV Renin mice is obtained from the tail vein and dropped onto a Precision PCx blood glucose sensor electrode strip (Abbott Laboratories) for blood glucose determination with a MediSense Precision PCx glucometer (Abbott Laboratories). Blood glucose data is used to block the UniNx db/db mice into equivalent groups. Body weight is determined at baseline and at termination with a Metler Toledo Balance. The heart and kidney are removed at necropsy and weighed on a Metler Toledo Balance. Blood (500 ul) is collected from the retro-orbital sinus at termination under isoflurane anesthesia. The clotted blood is centrifuged to obtain serum. Serum is analyzed for creatinine on a Roche Hitachi Modular Analytics P analyzer with reagents from Roche.
Urine is collected by a spot collection method to collect urine over a 2-4 hr time period. An individual mouse is placed on top of a 96 well polypropylene microplate and then covered by a Plexiglas chamber with holes for breathing but no access to food or water. At the end of the time period, the urine is removed from the plate with a micropipette and placed on ice, centrifuged and subjected to albumin and creatinine analysis. Urine albumin, creatinine and glucose are determined on a Roche Hitachi Modular Analytics P analyzer. Urine creatinine is determined with the Creatinine Plus reagent by Roche. For urine albumin, the Roche Microalbumin assay is modified to adapt the calibration curve for measuring urine albumin in mice. Albuminuria was defined as albumin to creatinine ratio (ACR).
Kidneys are removed at study termination, fixed in formalin and processed for paraffin sectioning according to standard methodology. […]

in vivo = details: male, cynomolgus monkey, sc, 50 nmol/kg
[4] = male Cynomolgus monkeys, single 96.4 nmol/kg i.v., individual animal
[5] = male, cynomolgus monkey, plasma, iv, 96.4 nmol/kg

SMILES | deaths during the study (remnant kidney mice) | half-life [1] | clearance ([2]; cynomolgus monkey, iv, 96.4 nmol/kg, male Cynomolgus monkeys, single 96.4 nmol/kg i.v., Mean) | clearance ([2]; cynomolgus monkey, iv, 96.4 nmol/kg, male Cynomolgus monkeys, single 96.4 nmol/kg i.v., individual animal) | C0 (estimated plasma concentration at time zero) [2, 4] | CL [2, 4] | AUC(0-inf) [2, 5] | C0 [2, 5] | deaths over the course of the study ([3]; Lisinopril plus 7.2 nmol/kg Example 4 group (N=8)) | deaths over the course of the study ([3]; Lisinopril plus 24 nmol/kg Example 4 group (N=8)) | deaths over the course of the study ([3]; Lisinopril plus 72 nmol/kg Example 4 group (N=8)) | CL/F (in vivo; CL/F) | half-life (in vivo; T1/2)
CC[C@H](C)[C@H](NC(C)=O)C(=O)N[C@H](C(=O)N[C@@H](CC(C)C)C(=O)N[C@@H](CO)C(=O)N[C@@H](CC(C)C)C(=O)N[C@@H](CC(=O)O)C(=O)N[C@H](C(=O)N1CCC[C@H]1C(=O)N[C@H](C(=O)NCC(=O)N[C@@H](CC(C)C)C(=O)N[C@@H](CC(C)C)C(=O)N[C@@H](CCC(N)=O)C(=O)N[C@H](C(=O)N[C@@H](CC(C)C)C(=O)N[C@@H](CC(C)C)C(=O)N[C@@H](CCC(=O)O)C(=O)N[C@@H](CCC(N)=O)C(=O)N[C@@H](CCC(=O)O)C(=O)N[C@@H](CCCCN)C(=O)N[C@@H](CCC(N)=O)C(=O)N[C@@H](CCC(=O)O)C(=O)N[C@@H](CCCCN)C(=O)N[C@@H](CCC(=O)O)C(=O)N[C@@H](CCCCN)C(=O)N[C@@H](CCC(N)=O)C(=O)N[C@@H](CCC(N)=O)C(=O)N[C@@H](C)C(=O)N[C@@H](CCCCNC(=O)COCCOCCNC(=O)COCCOCCNC(=O)CC[C@H](NC(=O)CC[C@H](NC(=O)CCCCCCCCCCCCCCCCCCC(=O)O)C(=O)O)C(=O)O)C(=O)N[C@H](C(=O)N[C@@H](CC(N)=O)C(=O)N[C@@H](C)C(=O)N[C@@H](CCC(N)=O)C(=O)N[C@H](C(=O)N[C@@H](CC(C)C)C(=O)N[C@@H](C)C(=O)N[C@@H](CCC(N)=O)C(=O)N[C@H](C(N)=O)C(C)C)[C@@H](C)CC)[C@@H](C)O)[C@@H](C)CC)[C@@H](C)CC)C(C)C)C(C)C [Example 2] (Ac-IVLSLDVPIGLLQILLEQEKQEKEKQQAK([AEEA-AEEA-γGlu-γGlu-C20 diacid])TNAQILAQV-NH2) | no deaths | 124 h | 7.68 mL/day/kg | 6.72 mL/day/kg | 3.267 µM and 3.059 µM | 8.64 mL/day/kg | 306 µM·h | 3.16 µM | – | – | – | – | –
CC[C@H](C)[C@H](NC)C(=O)N[C@H](C(=O)N[C@@H](CC(C)C)C(=O)N[C@@H](CO)C(=O)N[C@@H](CC(C)C)C(=O)N[C@@H](CC(=O)O)C(=O)N[C@H](C(=O)N1CCC[C@H]1C(=O)N[C@H](C(=O)NCC(=O)N[C@@H](CC(C)C)C(=O)N[C@@H](CC(C)C)C(=O)N[C@@H](CCC(N)=O)C(=O)N[C@H](C(=O)N[C@@H](CC(C)C)C(=O)N[C@@H](CC(C)C)C(=O)N[C@@H](CCC(=O)O)C(=O)N[C@@H](CCC(N)=O)C(=O)N[C@@H](CCC(=O)O)C(=O)N[C@@H](CCCCN)C(=O)N[C@@H](CCC(N)=O)C(=O)N[C@@H](CCC(=O)O)C(=O)N[C@@H](CCCCN)C(=O)N[C@@H](CCC(=O)O)C(=O)N[C@@H](CCCCN)C(=O)N[C@@H](CCC(N)=O)C(=O)N[C@@H](CCC(N)=O)C(=O)N[C@@H](C)C(=O)N[C@@H](CCCCNC(=O)COCCOCCNC(=O)COCCOCCNC(=O)CC[C@H](NC(=O)CC[C@H](NC(=O)CCCCCCCCCCCCCCCCCCC(=O)O)C(=O)O)C(=O)O)C(=O)N[C@H](C(=O)N[C@@H](CC(N)=O)C(=O)N[C@@H](C)C(=O)N[C@@H](CCC(N)=O)C(=O)N[C@H](C(=O)N[C@@H](CC(C)C)C(=O)N[C@@H](C)C(=O)N[C@@H](CCC(N)=O)C(=O)N[C@H](C(N)=O)C(C)C)[C@@H](C)CC)[C@@H](C)O)[C@@H](C)CC)[C@@H](C)CC)C(C)C)C(C)C [Example 4] (H-[NMeI]VLSLDVPIGLLQILLEQEKQEKEKQQAK([AEEA-AEEA-γGlu-γGlu-C20 diacid])TNAQILAQV-NH2) | – | – | – | – | – | – | – | – | 1 | 3 | 3 | 23.3 mL/day/kg | 79 h
